Measurements taken from publication PMC11884936, “MDC1 mediates Pellino recruitment to sites of DNA double-strand breaks” (Life Science Alliance, 2025).
Square brackets hold non-standard residues; d marks the D form. Peptide text beside a SMILES is read from it. pT = C[C@@H](OP(=O)(O)O)[C@H](N)C(=O)O

Key:
Pellino 1 FHA = target: T1, Pellino 1 FHA (Homo sapiens, UniProt Q96FA3); experiment: Isothermal titration calorimetry of phosphopeptides with PELI1 FHA fragment; format: binding; details: for DG: ITC Gibbs free energy; for DG / DH / TDS: PELI1 FHA; for DG / DH / TDS / Kd: 25 mM HEPES pH 7.0, 200 mM NaCl, 1 mM TCEP; for DH: ITC change in enthalpy; for TDS: ITC temperature x change in entropy; for Kd: PELI1 FHA (residues 13–273) 16 μM in cell, peptide 160 μM in syringe, single-site binding model, read-out: Kd
T1 construct: PELI1 and 2 FHA domains (residues 13–273 and 15–275, respectively); GST (N, cleaved yes); made in house; host or cells: E. coli BL21 (DE3)
T1 sequence (Q96FA3 13-273): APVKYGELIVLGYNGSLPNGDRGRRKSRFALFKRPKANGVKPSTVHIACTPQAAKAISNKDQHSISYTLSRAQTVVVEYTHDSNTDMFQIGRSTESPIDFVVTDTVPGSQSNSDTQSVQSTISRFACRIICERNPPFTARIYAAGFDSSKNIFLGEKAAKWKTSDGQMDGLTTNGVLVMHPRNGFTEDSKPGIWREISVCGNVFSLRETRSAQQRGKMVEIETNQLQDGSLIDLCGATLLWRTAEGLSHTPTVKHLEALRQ
Method: (§1) The regions corresponding to the PELI1 and 2 FHA domains (residues 13–273 and 15–275, respectively) were cloned into the pGEX-6P1 vector using BamHI/XhoI restriction sites and expressed as a 3C protease-cleavable N-terminal GST fusion protein in BL21 (DE3) cells (NEB). A 20 ml LB overnight culture was inoculated into 1L of LB medium supplemented with 100 μg/ml ampicillin to an OD600 of 0.05 and incubated at 37°C, 250 rpm until an OD600 of 0.6 was reached, whereupon expression was induced with 1 mM isopropyl ß-D-1-thiogalactopyranoside (IPTG) and overnight incubation at 18°C. Overnight cultures were harvested for 20 min at 4,000g, 4°C and resuspended in 20 ml lysis buffer (50 mM HEPES pH 7.5, 150 mM NaCl, 0.2 mg/ml lysozyme, 20 μg/ml DNase, and 1x complete, EDTA-free protease inhibitor cocktail tablet) before sonication-mediated cell lysis. Insoluble material was removed by centrifugation (21,000g, 20 min) and the GST-FHA fusion proteins were purified from the clarified lysate containers using 1 ml bed volume of pre-equilibrated Glutathione Sepharose 4B beads. After washing with 20 column volumes of Pellino FHA buffer (50 mM HEPES pH 7.5, 150 mM NaCl), the protein was cleaved overnight at 4°C from GST with 1% (vol/vol) GST-3C protease and the flow-through was further purified by gel filtration using a HiLoad 16/60 Superdex 200 pg (Cytiva) column. Purified Pellino FHA domains were concentrated to 50 mg/ml with a 10 kD molecular weight cut-off concentrator (Sartorius).
(§2) For ITC analysis protein and peptides were buffer exchanged into 25 mM HEPES pH 7.0, 200 mM NaCl, 1 mM TCEP. Titrations were carried out using a Microcal PEAQ-ITC (Malvern) using 13 injections of peptide at a typical syringe concentration of 160 μM (1 × 0.4 μl, 12 × 3.0 μl) and FHA concentration of 16 μM in the cell. Data were analyzed with a single-site binding model using Microcal PEAQ-ITC software. Peptide sequences are: MDC1 pT699–AYDLQApTQCFA, MDC1-pT719–[…], MDC1-pT752–AYEVLApTQPFC, MDC1-pT765–AYEDSEpTQPFD, IRAK-pT141(+3Y)–AYSSASpTFLYP, γH2AX–GGKATQApSQEY. All peptides were synthesises with N-terminal acetylation and a C-terminal amide. MDC1 pT699 and pT719 were made with alanine substitutions at the pT+4 position (Leu and Met, respectively) to aid solubility and monodispersity.

Pellino 2 FHA = target: T2, Pellino 2 FHA (Homo sapiens, UniProt Q9HAT8); experiment: Isothermal titration calorimetry of phosphopeptides with PELI2 FHA fragment; format: binding; details: PELI2 FHA, 25 mM HEPES pH 7.0, 200 mM NaCl, 1 mM TCEP; for DG: ITC Gibbs free energy; for DH: ITC change in enthalpy; for TDS: ITC temperature x change in entropy
T2 construct: PELI1 and 2 FHA domains (residues 13–273 and 15–275, respectively); GST (N, cleaved yes); made in house; host or cells: E. coli BL21 (DE3)
T2 sequence (Q9HAT8 15-275): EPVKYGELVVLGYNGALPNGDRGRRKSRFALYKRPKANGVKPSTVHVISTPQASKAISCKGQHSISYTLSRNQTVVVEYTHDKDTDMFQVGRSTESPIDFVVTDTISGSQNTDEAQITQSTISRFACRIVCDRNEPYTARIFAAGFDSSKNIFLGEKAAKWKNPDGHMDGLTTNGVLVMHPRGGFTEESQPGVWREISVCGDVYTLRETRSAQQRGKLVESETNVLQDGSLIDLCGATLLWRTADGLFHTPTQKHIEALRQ
Method: as §1, §2

Structure (SMILES)	DG (Pellino 1 FHA) [kcal/mol]	DH (Pellino 1 FHA) [kcal/mol]	TDS (Pellino 1 FHA) [kcal/mol]	Kd (Pellino 1 FHA; ITC) [µM]	DG (Pellino 2 FHA) [kcal/mol]	DH (Pellino 2 FHA) [kcal/mol]	TDS (Pellino 2 FHA) [kcal/mol]	tighter affinity than the other TQXF phosphopeptides (Pellino 1 FHA; ITC, compared with the other MDC1 TQXF phosphopeptides)
CC(=O)N[C@@H](C)C(=O)N[C@@H](Cc1ccc(O)cc1)C(=O)N[C@@H](CCC(=O)O)C(=O)N[C@@H](CC(=O)O)C(=O)N[C@@H](CCC(=O)O)C(=O)N1CCC[C@H]1C(=O)N[C@H](C(=O)N[C@@H](CCC(N)=O)C(=O)N[C@@H](C)C(=O)N[C@@H](Cc1ccccc1)C(=O)N[C@@H](C)C(N)=O)[C@@H](C)OP(=O)(O)O [MDC1-pT719] (Ac-AYEDEP[pT]QAFA-NH2)	-8.13	-21.8	-13.7	1.14	-8.08	-34.7	-26.5	
CC(=O)N[C@@H](C)C(=O)N[C@@H](Cc1ccc(O)cc1)C(=O)N[C@@H](CCC(=O)O)C(=O)N[C@H](C(=O)N[C@@H](CC(C)C)C(=O)N[C@@H](C)C(=O)N[C@H](C(=O)N[C@@H](CCC(N)=O)C(=O)N1CCC[C@H]1C(=O)N[C@@H](Cc1ccccc1)C(=O)N[C@@H](CS)C(N)=O)[C@@H](C)OP(=O)(O)O)C(C)C [MDC1-pT752] (Ac-AYEVLA[pT]QPFC-NH2)	-8.1	-18.5	-10.3	1.14	-8.15	-28.2	-20	
CC(=O)N[C@@H](C)C(=O)N[C@@H](Cc1ccc(O)cc1)C(=O)N[C@@H](CC(=O)O)C(=O)N[C@@H](CC(C)C)C(=O)N[C@@H](CCC(N)=O)C(=O)N[C@@H](C)C(=O)N[C@H](C(=O)N[C@@H](CCC(N)=O)C(=O)N[C@@H](CS)C(=O)N[C@@H](Cc1ccccc1)C(=O)N[C@@H](C)C(N)=O)[C@@H](C)OP(=O)(O)O [MDC1-pT699] (Ac-AYDLQA[pT]QCFA-NH2)	-7.77	-18.5	-10.7		-8.13	-19.9	-11.8	
CC(=O)N[C@@H](C)C(=O)N[C@@H](Cc1ccc(O)cc1)C(=O)N[C@@H](CCC(=O)O)C(=O)N[C@@H](CC(=O)O)C(=O)N[C@@H](CO)C(=O)N[C@@H](CCC(=O)O)C(=O)N[C@H](C(=O)N[C@@H](CCC(N)=O)C(=O)N1CCC[C@H]1C(=O)N[C@@H](Cc1ccccc1)C(=O)N[C@@H](CC(=O)O)C(N)=O)[C@@H](C)OP(=O)(O)O [MDC1-pT765] (Ac-AYEDSE[pT]QPFD-NH2)	-9.08	-22	-12.9	0.23	-8.77	-32.7	-23.9	5–10 fold
